Tests used:
[1] = target: Kelch-like ECH-associated protein 1 (Homo sapiens, UniProt Q14145); experiment: Displacement of FITC-LDEETGEFL-NH2 from human KEAP1 Kelch domain (322 to 609 residues) measured after 30 mins by fluorescence polarization assay
[2] = target: T1, Nuclear factor erythroid 2-related factor 2 (Homo sapiens) (UniProt Q16236); experiment: Activation of Nrf2 (unknown origin) stably transfected in human HepG2-ARE-C8 cells assessed as increase in ARE-driven luciferase activity at 0.1 uM by luciferase reporter gene assay relative to control; assay type: cell-based
T1 sequence (whole entry): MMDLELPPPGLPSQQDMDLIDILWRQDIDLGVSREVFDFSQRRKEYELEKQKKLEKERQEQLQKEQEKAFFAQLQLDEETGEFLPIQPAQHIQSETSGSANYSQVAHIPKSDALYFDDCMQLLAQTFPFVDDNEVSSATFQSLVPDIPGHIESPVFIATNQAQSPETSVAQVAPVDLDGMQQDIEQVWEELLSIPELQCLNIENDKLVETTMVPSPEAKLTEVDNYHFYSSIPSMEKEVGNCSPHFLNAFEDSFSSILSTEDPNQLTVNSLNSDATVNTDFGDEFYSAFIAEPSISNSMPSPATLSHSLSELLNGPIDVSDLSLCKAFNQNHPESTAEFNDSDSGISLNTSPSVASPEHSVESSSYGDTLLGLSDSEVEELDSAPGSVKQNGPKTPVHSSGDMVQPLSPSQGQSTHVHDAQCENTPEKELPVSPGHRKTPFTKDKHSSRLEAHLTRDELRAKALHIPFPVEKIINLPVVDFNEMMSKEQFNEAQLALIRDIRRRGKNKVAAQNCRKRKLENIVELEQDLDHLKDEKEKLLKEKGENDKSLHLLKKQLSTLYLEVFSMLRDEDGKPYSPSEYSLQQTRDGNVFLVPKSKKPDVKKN

[3] = target: T1, Nuclear factor erythroid 2-related factor 2 (Homo sapiens); experiment: Activation of Nrf2 (unknown origin) stably transfected in human HepG2-ARE-C8 cells assessed as increase in ARE-driven luciferase activity at 1 uM by luciferase reporter gene assay relative to control; assay type: cell-based
[4] = target: T1, Nuclear factor erythroid 2-related factor 2 (Homo sapiens); experiment: Activation of Nrf2 (unknown origin) stably transfected in human HepG2-ARE-C8 cells assessed as increase in ARE-driven luciferase activity at 5 uM by luciferase reporter gene assay relative to control; assay type: cell-based
[5] = target: T1, Nuclear factor erythroid 2-related factor 2 (Homo sapiens); experiment: Activation of Nrf2 (unknown origin) stably transfected in human HepG2-ARE-C8 cells assessed as increase in ARE-driven luciferase activity at 20 uM by luciferase reporter gene assay relative to control; assay type: cell-based
[6] = target: T1, Nuclear factor erythroid 2-related factor 2 (Homo sapiens); experiment: Activation of Nrf2 (unknown origin) stably transfected in human HepG2-ARE-C8 cells assessed as increase in ARE-driven luciferase activity at 0.01 uM by luciferase reporter gene assay relative to control; assay type: cell-based
[7] = target: T1, Nuclear factor erythroid 2-related factor 2 (Homo sapiens); experiment: Activation of Nrf2 (unknown origin) stably transfected in human HepG2-ARE-C8 cells assessed as increase in ARE-driven luciferase activity at 10 uM by luciferase reporter gene assay relative to control; assay type: cell-based

Sequence of Kelch-like ECH-associated protein 1 (Q14145 whole entry, the tested form may be a part): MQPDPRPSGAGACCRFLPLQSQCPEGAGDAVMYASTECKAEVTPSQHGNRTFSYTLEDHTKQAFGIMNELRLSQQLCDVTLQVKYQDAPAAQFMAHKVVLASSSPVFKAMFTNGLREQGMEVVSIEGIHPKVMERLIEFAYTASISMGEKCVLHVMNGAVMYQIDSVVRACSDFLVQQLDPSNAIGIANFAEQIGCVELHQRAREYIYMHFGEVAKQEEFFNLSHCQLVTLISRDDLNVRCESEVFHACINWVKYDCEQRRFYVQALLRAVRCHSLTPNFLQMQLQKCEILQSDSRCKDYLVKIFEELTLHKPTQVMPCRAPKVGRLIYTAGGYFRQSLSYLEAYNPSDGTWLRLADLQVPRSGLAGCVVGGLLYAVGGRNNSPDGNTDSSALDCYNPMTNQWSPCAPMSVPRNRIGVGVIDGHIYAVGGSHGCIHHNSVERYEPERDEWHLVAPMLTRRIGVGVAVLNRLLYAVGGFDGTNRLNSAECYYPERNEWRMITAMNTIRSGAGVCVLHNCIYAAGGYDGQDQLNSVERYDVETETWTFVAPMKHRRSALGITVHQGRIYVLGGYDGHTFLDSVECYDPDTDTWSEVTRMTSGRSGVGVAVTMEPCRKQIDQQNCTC

IC50 [1] [µM] | SMILES | further results
> 50 | COc1ccc(S(=O)(=O)Nc2ccc(N[C@@H](CCS(C)(=O)=O)C(=O)O)c3ccccc23)cc1 | 
> 50 | COc1ccc(S(=O)(=O)Nc2ccc(N[C@@H](C)C(=O)O)c3ccccc23)cc1 | 
> 50 | COc1ccc(S(=O)(=O)Nc2ccc(N[C@@H](Cc3c[nH]c4ccccc34)C(=O)O)c3ccccc23)cc1 | 
 | CC(C)(C)c1cc(O)ccc1O | fold change (FC) [2]: 1.02; fold change (FC) [3]: 1.46; fold change (FC) [4]: 2.27; fold change (FC) [5]: 4.87; fold change (FC) [6]: 1.04; fold change (FC) [7]: 3.38
> 50 | COc1ccc(S(=O)(=O)Nc2ccc(N[C@@H](CO)C(=O)O)c3ccccc23)cc1 | 
> 50 | COc1ccc(S(=O)(=O)Nc2ccc(N[C@H](C(=O)O)C(C)(C)C)c3ccccc23)cc1 | 
> 50 | COc1ccc(S(=O)(=O)Nc2ccc(N[C@@H](Cc3ccc(O)cc3)C(=O)O)c3ccccc23)cc1 | 
> 50 | COc1ccc(S(=O)(=O)N(CC(=O)O)c2ccc(N[C@@H](CO)C(=O)O)c3ccccc23)cc1 | 
> 50 | COc1ccc(S(=O)(=O)Nc2ccc(N[C@H](C(=O)O)C(C)C)c3ccccc23)cc1 | 
> 50 | COc1ccc(S(=O)(=O)Nc2ccc(N[C@@H](CC(C)C)C(=O)O)c3ccccc23)cc1 | 

From ChEMBL document CHEMBL4364299, “Discovery of a Potent Kelch-Like ECH-Associated Protein 1-Nuclear Factor Erythroid 2-Related Factor 2 (Keap1-Nrf2) Protein-Protein Interaction Inhibitor with Natural Proline Structure as a Cytoprotective Agent against Acetaminophen-Induced Hepatotoxicity” (J Med Chem, 2019)
